Measurements taken from US10743543B2, “Botanical disinfection composition, disinfectant and preparation method thereof” (priority 2016, dated 2020).

Key:
pathogenic bacteria = details: general statement on antibacterial properties; cited from earlier work
Escherichia coli = experiment: Time needed to meet disinfection requirements, Escherichia coli; type: cell-based; details: concentration: ethanol 70%, benzalkonium bromide 1:1000, 1210 250 ppm, Embodiment 11 stock
Pseudomonas auerginosa = experiment: Time needed to meet disinfection requirements, Pseudomonas aeruginosa; type: cell-based; details: concentration: ethanol 70%, 1210 500 ppm, Embodiment 11 stock
Staphylococcus aureus = experiment: Time needed to meet disinfection requirements, Staphylococcus aureus; type: cell-based; details: concentration: ethanol 70%, benzalkonium bromide 1:1000, 1210 250 ppm, Embodiment 11 stock
Candida albicans = experiment: Time needed to meet disinfection requirements, Candida albicans; type: cell-based; details: concentration: ethanol 70%, iodophor 40 mg/L, Embodiment 11 stock
[1] = tested on: Mycobacterium tuberculosis; details: concentration: ethanol 70%

Row | Compound | bactericidal concentration (pathogenic bacteria) | Time needed for meeting disinfection requirements (Escherichia coli) | Time needed for meeting disinfection requirements (Pseudomonas auerginosa) | Time needed for meeting disinfection requirements (Staphylococcus aureus) | Time needed for meeting disinfection requirements (Candida albicans) | Time needed for meeting disinfection requirements [1]
1 | O=C(O)CCCCCCCC(=O)O [Azelaic acid, azelaic acid] | 1 mol/L | – | – | – | – | –
2 | CCO [Ethanol] | – | 0.5. min | 1 min | 5 min | 1 min | 5 min
3 | Benzalkonium bromide | – | 10 min | – | 5 min | – | –
